Results taken from patent US11952344B2, “Heterocyclic compound and use thereof” (TAKEDA PHARMACEUTICAL COMPANY LIMITED, priority 2019, dated 2024).

Molecular target: T1, Human NMDA (NR1/NR2B) Receptor (Homo sapiens, UniProt Q13224)
T1 construct: host or cells: HEK293
Experiment: NR2B Ca2+ influx assay
Type: cell-based
Conditions: 10 μM compound; HEK293 cells expressing GRIN1 and GRIN2B; glutamic acid/glycine-induced Ca2+ influx, Fluo-4 fluorescence; read-out: inhibitory rate (10 μM compound concentration)
Description: Experimental Example 1 NR2B Ca^2+ Influx Assay
To confirm the “antagonistic action on an NMDA receptor containing the NR2B subunit” of the compound of the present invention, human embryonic kidney cell expressing the “NMDA receptor composed of four subunits including 2 sets of heterodimers of NR1 and NR2B”, specifically HEK293 cell expressing human glutamate ionotropic receptor NMDA type subunit 1 (GRIN1) and human glutamate ionotropic receptor NMDA type subunit 2B (GRIN2B), was used and the activation suppressive effect (inhibitory activity) on the receptors by the compound of the present invention was measured.
HEK293 cells that express GRIN1 and GRIN2B were purchased from ChanTest (Human NMDA (NR1/NR2B) Receptor-expressing, stable replicating cell line (HEK293) catalog No. CT6121).
As an index of the NMDA receptor activation, intracellular calcium ion (Ca^2+) influx caused by the binding of glycine and glutamic acid with NR1 and NR2B, respectively, was used.
HEK293 cells that express GRIN1 and GRIN2B were cultured in a cell culture flask in DMEM/F-12 (COSMO BIO, 10-092-CM) medium added with 10% FBS (fetal bovine serum, AusGene), 100 units/mL penicillin, 100 μg/mL streptomycin, 500 μg/mL neomycin, 100 μg/mL Zeocin (registered trade mark, Invitrogen), 5 μg/mL Blasticidin, in an incubator (37° C., 5% CO2).
The cells were detached from flask with trypsin the day before the assay, suspended in a seeding medium (DMEM (Invitrogen, 31053) added with 10% FBS, 100 units/mL penicillin, 100 μg/mL streptomycin) at 8×10^5 cells/mL, seeded by 25 μL/well in a 384-well plate (Falcon, 356663) at 20000 cells/well, and cultured overnight in an incubator. On the day of the assay, tetracycline (Wako Pure Chemical Industries, Ltd., 209-16561) was diluted with the seeding medium at 2 μg/mL, added at 25 μL/well to the plate seeded with the cells, and cultured for 2 hr in an incubator. Thereafter, the medium was removed, and the cells were washed with 50 μL/well assay buffer (137 mM NaCl, 4 mM KCl, 1.8 mM CaCl2, 10 mM HEPES (pH 7.2), 10 mM Glucose, 0.1% BSA). Then, a loading buffer (assay buffer added with 2.5 μM Fluo-4AM, 2 mM Amaranth, 1 mM Tartrazine) was added at 25 μL/well, and incubation was performed in the incubator for 30 min, and at room temperature for 15 min. A solution (25 μL/well) of the Example compound diluted with the above-mentioned assay buffer at 30 μM (final concentration 10 μM) was added, and the cells were stood for 15 min at room temperature. Using FDSS7000EX/μCELL (Hamamatsu Photonics K.K.), 25 μL/well of an assay buffer containing 30 μM glutamic acid, 30 μM glycine was added, and the fluorescence signal at wavelength of Excitation 480 nm, Emission 540 nm was measured every 3 seconds for 5 min. The inhibitory activity was calculated as a relative activity value (inhibitory rate) that inhibits 100% of the cumulative value of the fluorescence value of a well added with an assay buffer free of glutamic acid, glycine, relative to the cumulative value of the fluorescence value of each well.

T1 sequence (Q13224 27-1484, other chains not shown): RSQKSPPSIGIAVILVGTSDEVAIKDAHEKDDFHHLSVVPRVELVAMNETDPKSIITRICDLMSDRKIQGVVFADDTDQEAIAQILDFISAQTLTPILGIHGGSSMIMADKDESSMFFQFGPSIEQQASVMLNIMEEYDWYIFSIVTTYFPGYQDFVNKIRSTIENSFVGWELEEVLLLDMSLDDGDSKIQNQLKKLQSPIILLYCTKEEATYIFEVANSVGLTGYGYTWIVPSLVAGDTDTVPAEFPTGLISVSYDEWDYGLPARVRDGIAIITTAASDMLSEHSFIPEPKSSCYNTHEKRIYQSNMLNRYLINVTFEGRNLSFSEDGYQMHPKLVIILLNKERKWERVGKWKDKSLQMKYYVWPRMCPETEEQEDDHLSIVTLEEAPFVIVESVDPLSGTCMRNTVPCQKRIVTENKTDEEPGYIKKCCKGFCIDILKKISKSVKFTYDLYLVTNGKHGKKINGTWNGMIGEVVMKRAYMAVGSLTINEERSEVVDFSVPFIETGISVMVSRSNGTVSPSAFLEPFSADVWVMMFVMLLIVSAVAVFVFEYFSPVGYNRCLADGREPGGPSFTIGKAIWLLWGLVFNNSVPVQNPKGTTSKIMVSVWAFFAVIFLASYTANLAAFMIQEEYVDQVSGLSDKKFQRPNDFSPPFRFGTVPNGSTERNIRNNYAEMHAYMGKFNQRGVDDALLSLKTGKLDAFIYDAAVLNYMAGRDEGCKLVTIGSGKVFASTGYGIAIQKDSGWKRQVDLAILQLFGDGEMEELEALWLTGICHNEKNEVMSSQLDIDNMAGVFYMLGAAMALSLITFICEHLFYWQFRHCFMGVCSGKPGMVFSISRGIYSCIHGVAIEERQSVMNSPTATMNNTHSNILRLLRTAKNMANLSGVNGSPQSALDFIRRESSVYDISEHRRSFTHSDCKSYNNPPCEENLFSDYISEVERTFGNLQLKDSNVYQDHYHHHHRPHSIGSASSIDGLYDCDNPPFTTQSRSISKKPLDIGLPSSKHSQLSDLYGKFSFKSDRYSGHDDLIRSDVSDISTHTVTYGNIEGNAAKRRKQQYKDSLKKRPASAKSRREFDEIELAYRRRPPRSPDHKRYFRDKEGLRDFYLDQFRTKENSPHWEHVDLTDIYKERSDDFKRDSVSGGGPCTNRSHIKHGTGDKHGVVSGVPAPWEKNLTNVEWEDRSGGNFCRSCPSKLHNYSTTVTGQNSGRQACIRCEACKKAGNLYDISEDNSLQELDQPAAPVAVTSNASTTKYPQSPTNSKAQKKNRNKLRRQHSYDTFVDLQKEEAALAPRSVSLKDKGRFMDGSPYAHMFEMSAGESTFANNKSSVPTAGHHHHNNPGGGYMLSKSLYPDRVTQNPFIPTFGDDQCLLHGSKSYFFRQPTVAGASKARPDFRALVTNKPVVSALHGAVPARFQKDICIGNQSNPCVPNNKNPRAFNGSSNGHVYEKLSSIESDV

Cc1c(F)cncc1CNC(=O)c1cnc(OC(F)F)c(Cl)c1 [Example 73, 5-chloro-6-(difluoromethoxy)-N-[(5-fluoro-4-methylpyridin-3-yl)methyl]pyridine-3-carboxamide]
inhibition at 10 µM: 93%

COc1c(F)cc(C(=O)NCc2cncnc2OC2CC2)cc1F [Example 74, N-{[4-(cyclopropyloxy)-pyrimidin-5-yl]methyl}-3,5-difluoro-4-methoxybenzamide]
inhibition at 10 µM: 90%

CCOc1ncc(C(=O)NCc2cncnc2OC2CC2)cc1F [Example 75, N-{[4-(cyclopropyloxy)-pyrimidin-5-yl]methyl}-6-ethoxy-5-fluoropyridine-3-carboxamide]
inhibition at 10 µM: 93%

O=C(NCc1cncnc1OC1CC1)c1cc(F)c(OC(F)F)c(F)c1 [Example 76, N-{[4-(cyclopropyloxy)-pyrimidin-5-yl]methyl}-4-(difluoromethoxy)-3,5-difluorobenzamide]
inhibition at 10 µM: 95%

O=C(NCc1cncnc1OC1CC1)c1ccc(OC(F)F)c(F)c1 [Example 77, N-{[4-(cyclopropyloxy)-pyrimidin-5-yl]methyl}-4-(difluoromethoxy)-3-fluorobenzamide]
inhibition at 10 µM: 94%

O=C(NCc1cncnc1OC1CC1)c1cnc(OC(F)F)c(Cl)c1 [Example 78, 5-chloro-N-{[4-(cyclopropyloxy)pyrimidin-5-yl]methyl}-6-(difluoromethoxy)pyridine-3-carboxamide]
inhibition at 10 µM: 94%

COc1ncncc1CNC(=O)c1csc(C2CC2)c1 [Example 79, 5-cyclopropyl-N-[(4-methoxypyrimidin-5-yl)methyl]thiophene-3-carboxamide]
inhibition at 10 µM: 89%

Cc1c(F)cncc1CNC(=O)c1cnc(C2CC2)c(F)c1 [Example 80, 6-cyclopropyl-5-fluoro-N-[(5-fluoro-4-methylpyridin-3-yl)methyl]pyridine-3-carboxamide]
inhibition at 10 µM: 94%

O=C(NCc1cncnc1OC1CC1)c1cnc(C2CC2)c(F)c1 [Example 81, 6-cyclopropyl-N-{[4-(cyclopropyloxy)-pyrimidin-5-yl]methyl}-5-fluoropyridine-3-carboxamide]
inhibition at 10 µM: 90%

COc1ncncc1CNC(=O)c1cnc(C2CC2)c(F)c1 [Example 82, 6-cyclopropyl-5-fluoro-N-[(4-methoxypyrimidin-5-yl)methyl]pyridine-3-carboxamide]
inhibition at 10 µM: 89%

COc1ncncc1CNC(=O)c1cnc(C2CC2)c(Cl)c1 [Example 83, 5-chloro-6-cyclopropyl-N-[(4-methoxypyrimidin-5-yl)methyl]pyridine-3-carboxamide]
inhibition at 10 µM: 92%

COc1ncncc1CNC(=O)c1cc(F)c(OC)c(Cl)c1 [Example 84, 3-chloro-5-fluoro-4-methoxy-N-[(4-methoxypyrimidin-5-yl)methyl]benzainide]
inhibition at 10 µM: 91%

CCOc1ncc(C(=O)NCc2cncnc2OC)cc1Cl [Example 85, 5-chloro-6-ethoxy-N-[(4-methoxypyrimidin-5-yl)methyl]pyridine-3-carboxamide]
inhibition at 10 µM: 87%

CCOc1ncncc1CNC(=O)c1cc(F)c(OC)c(F)c1 [Example 86, N-[(4-ethoxypyrimidin-5-yl)methyl]-3,5-difluoro-4-methoxybenzamide]
inhibition at 10 µM: 90%

CCOc1ncncc1CNC(=O)c1cc(F)c(OC(F)F)c(F)c1 [Example 87, 4-(difluoromethoxy)-N-[(4-ethoxypyrimidin-5-yl)methyl]-3,5-difluorobenzamide]
inhibition at 10 µM: 93%

CCOc1ncncc1CNC(=O)c1cnc(OC(F)F)c(Cl)c1 [Example 88, 5-chloro-6-(difluoromethoxy)-N-[(4-ethoxypyrimidin-5-yl)methyl]pyridine-3-carboxamide]
inhibition at 10 µM: 92%

COc1ccncc1CNC(=O)c1cc(F)c(OC)c(F)c1 [Example 89, 3,5-difluoro-4-methoxy-N-[(4-methoxypyridin-3-yl)methyl]benzamide]
inhibition at 10 µM: 92%

COc1c(F)cc(C(=O)NCc2cncc(F)c2OC)cc1F [Example 90, 3,5-difluoro-N-[(5-fluoro-4-methoxypyridin-3-yl)methyl]-4-methoxybenzamide]
inhibition at 10 µM: 95%

CC(F)(F)c1ncc(C(=O)NCc2cncnc2OC2CC2)cc1F [Example 91, N-{[4-(cyclopropyloxy)-pyrimidin-5-yl]methyl}-6-(1,1-difluoroethyl)-5-fluoropyridine-3-carboxamide]
inhibition at 10 µM: 91%

COc1ncncc1CNC(=O)c1cnc(C(C)(F)F)c(F)c1 [Example 92, 6-(1,1-difluoroethyl)-5-fluoro-N-[(4-methoxypyrimidin-5-yl)methyl]pyridine-3-carboxamide]
inhibition at 10 µM: 86%

Cc1ccncc1CNC(=O)c1cnc(C(C)(F)F)c(F)c1 [Example 93, 6-(1,1-difluoroethyl)-5-fluoro-N-[(4-methylpyridin-3-yl)methyl]pyridine-3-carboxamide]
inhibition at 10 µM: 90%

Cc1c(F)cncc1CNC(=O)c1cnc(C(C)(F)F)c(F)c1 [Example 94, 6-(1,1-difluoroethyl)-5-fluoro-N-[(5-fluoro-4-methylpyridin-3-yl)methyl]pyridine-3-carboxamide]
inhibition at 10 µM: 91%

CC(F)(F)c1ncc(C(=O)NCc2cncnc2OC2CC2)cc1Cl [Example 95, 5-chloro-N-{[4-(cyclopropyloxy)pyrimidin-5-yl]methyl}-6-(1,1-difluoroethyl)pyridine-3-carboxamide]
inhibition at 10 µM: 90%

COc1ncncc1CNC(=O)c1cnc(C(C)(F)F)c(Cl)c1 [Example 96, 5-chloro-6-(1,1-difluoroethyl)-N-[(4-methoxypyrimidin-5-yl)methyl]pyridine-3-carboxamide]
inhibition at 10 µM: 85%

Cc1ccncc1CNC(=O)c1cnc(C(C)(F)F)c(Cl)c1 [Example 97, 5-chloro-6-(1,1-difluoroethyl)-N-[(4-methylpyridin-3-yl)methyl]pyridine-3-carboxamide]
inhibition at 10 µM: 92%

Cc1c(F)cncc1CNC(=O)c1cnc(C(C)(F)F)c(Cl)c1 [Example 98, 5-chloro-6-(1,1-difluoroethyl)-N-[(5-fluoro-4-methylpyridin-3-yl)methyl]pyridine-3-carboxamide]
inhibition at 10 µM: 95%

O=C(NCc1cnccc1OC(F)F)c1cnc(OC(F)F)c(F)c1 [Example 99, 6-(difluoromethoxy)-N-{[4-(difluoromethoxy)pyridin-3-yl]methyl}-5-fluoropyridine-3-carboxamide]
inhibition at 10 µM: 89%

Cc1ccncc1CNC(=O)c1csc(C(F)F)c1 [Example 100, 5-(difluoromethyl)-N-[(4-methylpyridin-3-yl)methyl]thiophene-3-carboxamide]
inhibition at 10 µM: 72%

Cc1ccncc1CNC(=O)c1cnc(C2CC2(F)F)c(F)c1 (stereo not drawn) [Example 101, 6-(2,2-difluorocyclopropyl)-5-fluoro-N-[(4-methylpyridin-3-yl)methyl]pyridine-3-carboxamide]
inhibition at 10 µM: 90%

Cc1ccncc1CNC(=O)c1cnc(C2CC2(F)F)c(Cl)c1 (stereo not drawn) [Example 102, 5-chloro-6-(2,2-difluorocyclopropyl)-N-[(4-methylpyridin-3-yl)methyl]pyridine-3-carboxamide]
inhibition at 10 µM: 93%

Cc1c(F)cncc1CNC(=O)c1cnc(C2CC2(F)F)c(F)c1 (stereo not drawn) [Example 103, 6-(2,2-difluorocyclopropyl)-5-fluoro-N-[(5-fluoro-4-methylpyridin-3-yl)methyl]pyridine-3-carboxamide]
inhibition at 10 µM: 92%

Cc1c(F)cncc1CNC(=O)c1cnc(C2CC2(F)F)c(Cl)c1 (stereo not drawn) [Example 104, 5-chloro-6-(2,2-difluorocyclopropyl)-N-[(5-fluoro-4-methylpyridin-3-yl)methyl]pyridine-3-carboxamide]
inhibition at 10 µM: 95%

O=C(NCc1cnccc1OC(F)F)c1cnc(OC(F)F)c(Cl)c1 [Example 111, 5-chloro-6-(difluoromethoxy)-N-[(4-(difluoromethoxy)pyridin-3-yl)methyl]pyridine-3-carboxamide]
inhibition at 10 µM: 94%
